Data from PMC6149664, “Synthesis and In Vitro Antimycobacterial Activity of Novel N-Arylpiperazines Containing an Ethane-1,2-diyl Connecting Chain” (Molecules : A Journal of Synthetic Chemistry and Natural …, 2017).
Read-outs that look alike come from different tables or passages of the source.

Tests used:
[1] = format: physicochemical; design: key to RM (RP-TLC): RM = log(1/Rf - 1), from Rf in HCl/acetone mobile phase
Procedure: In the RP-TLC, silica gel plates impregnated by a hand with a variously concentrated silicone oil in heptane (a strong hydrophobic agent) were used as a non-polar stationary phase. Optimal differences in RM values within both homological groups 8a–d and 8e–h were observed if 1% silicone oil in heptane was chosen (Tables 1 and S1 in Supplementary Materials).
The RM values were calculated according to Equation (5) from the Rf parameters observed in a SM mobile phase: hydrochloric acid (c = 1.0 M)/acetone (4:1, v/v):RM = log (1/Rf – 1)(5)
For the experiments, aluminium sheets pre-coated with silica gel 60 F254 (0.25 mm thickness; Merck) were impregnated by a variously concentrated silicone oil in heptane, which ranged from 1% to 5%. The plates were separately spotted with 2 µL of methanolic solutions of each compound (c = 1 mg/mL), starting points were 1 cm from a bottom edge of these plates. The chromatographic plates were developed in glass developing chambers saturated for 30 min by the SM mobile phase. Development was carried out upon 15 cm from a starting line by an ascending technique. After being developed, the plates were dried at room temperature. Detection of zones was performed under iodine vapours/UV light at λ = 254 nm. Each experiment was run in triplicate at 21 °C, the RM values of analytes were calculated separately for each run.
Optimal differences in RM values within both homological groups 8a–d and 8e–h were observed if 1% silicone oil in heptane was chosen. The Rfs were found in a range from 0.19 (8h) to 0.78 (8a; Table 1). All the calculated average RM values were summarized in Table S1 (Supplementary Materials).

[2] = system: M. tuberculosis CNCTC My 331/88 (identical with H37Rv and ATCC 2794); assay: In vitro antimycobacterial MIC, dilution-micromethod in Šula semisynthetic medium; format: cell-based; conditions: Mycobacterium tuberculosis
[3] = system: human monocytic leukemia THP-1 cell line; assay: In vitro cytotoxicity screening, LDH assay; conditions: 24 h
[4] = silica gel plates impregnated with 3% silicone oil in heptane
[5] = silica gel plates impregnated with 5% silicone oil in heptane
[6] = 336 h, 14 d cultivation, read-out: MIC, MT My 331/88
[7] = 504 h, 21 d cultivation, read-out: MIC, MT My 331/88
[8] = 336 h, 14-d/21-d cultivation, read-out: MIC against M. tuberculosis CNCTC My 331/88

Structure (SMILES)	RM, lipophilicity index (RP-TLC) [1]	RM (RP-TLC) [1, 4]	RM (RP-TLC) [1, 5]	MIC [2, 6] [µM]	MIC [2, 7] [µM]	MIC [2, 8] [µM]	Effect on proliferation of the THP-1 cells compared to a control [3]	Relative survival rate of the THP-1 cells ([3]; highest tested concentration of 30 μM) [%]
CCCOC(=O)Nc1ccc(C(O)CN2CCN(c3ccccc3F)CC2)cc1.Cl (stereo not drawn) [8g, 1-(2-Hydroxy-2-{4-[(propoxycarbonyl)amino]phenyl}ethyl)-4-(2-fluorophenyl)piperazin-1-ium chloride]	0.39	0.58	0.55	16	16	–	–	–
CCCCOC(=O)Nc1ccc(C(O)CN2CCN(c3ccccc3F)CC2)cc1.Cl (stereo not drawn) [8h, 1-(2-{4-[(Butoxycarbonyl)amino]phenyl}-2-hydroxyethyl)-4-(2-fluorophenyl)piperazin-1-ium chloride]	0.63	0.83	0.83	8	8	8	–	–
COC(=O)Nc1ccc(C(O)CN2CCN(c3ccccc3F)CC2)cc1.Cl (stereo not drawn) [8e, 1-(2-Hydroxy-2-{4-[(methoxycarbonyl)amino]phenyl}ethyl)-4-(2-fluorophenyl)piperazin-1-ium chloride]	–	0.19	0.25	125	125	125	increased proliferation	–
CCCOC(=O)Nc1cccc(C(O)CN2CCN(c3ccccc3F)CC2)c1.Cl (stereo not drawn) [8c, 1-(2-Hydroxy-2-{3-[(propoxycarbonyl)amino]phenyl}ethyl)-4-(2-fluorophenyl)piperazin-1-ium chloride]	–	0.42	0.44	62.5	62.5	–	–	–
CCCCOC(=O)Nc1cccc(C(O)CN2CCN(c3ccccc3F)CC2)c1.Cl (stereo not drawn) [8d, 1-(2-{3-[(Butoxycarbonyl)amino]phenyl}-2-hydroxyethyl)-4-(2-fluorophenyl)piperazin-1-ium chloride]	0.01	–	0.64	32	32	32	–	79
COC(=O)Nc1cccc(C(O)CN2CCN(c3ccccc3F)CC2)c1.Cl (stereo not drawn) [8a, 1-(2-Hydroxy-2-{3-[(methoxycarbonyl)amino]phenyl}ethyl)-4-(2-fluorophenyl)piperazin-1-ium chloride]	–	-0.16	-0.05	250	250	250	increased proliferation	–
CCOC(=O)Nc1cccc(C(O)CN2CCN(c3ccccc3F)CC2)c1.Cl (stereo not drawn) [8b, 1-(2-{3-[(Ethoxycarbonyl)amino]phenyl}-2-hydroxyethyl)-4-(2-fluorophenyl)piperazin-1-ium chloride]	–	-0.03	0.11	125	125	–	–	–
CCOC(=O)Nc1ccc(C(O)CN2CCN(c3ccccc3F)CC2)cc1.Cl (stereo not drawn) [8f, 1-(2-{4-[(Ethoxycarbonyl)amino]phenyl}-2-hydroxyethyl)-4-(2-fluorophenyl)piperazin-1-ium chloride]	0.19	0.31	0.41	32	62.5	–	–	–
